Values of other authors in patent US20240410831A1, “Multi-Mode Zinc-Selective Emission-Ratiometric Fluorescent Probes for Biological Application” (Georgia Tech Research Corporation, priority 2023, published 2024).
Structures can show the parent of a compound that is named as a salt.

Experiments:
[1] = in 1.0 N H2SO4; cited from earlier work
[2] = pH 7.0, 25° C.; read-out: Kd for Zn(II) of competing ligand; cited from earlier work

| SMILES | quantum yield of reference standard [1] | Kd [2] [nM] |
| --- | --- | --- |
| C=C[C@H]1C[N@@]2CC[C@H]1C[C@H]2[C@H](O)c1ccnc2ccc(OC)cc12 [quinine sulfate] | 0.546 | – |
| O=C(O)CN(CCOCCOCCN(CC(=O)O)CC(=O)O)CC(=O)O [EGTA, ethyleneglycol-bis(β-aminoethyl)-N,N,N′,N′-tetraacetic acid] | – | 4.6 |
